The results in this text go back to ChEMBL document CHEMBL1201862, “PubChem BioAssay data set” (2004).

Test systems include MOLT-4; SNB-19; SR; HCT-15; U-251; A549; NCI-H522; K562; CAKI-1; DMS-114; UACC-257; TK-10; OVCAR-4; EKVX; LOX IMVI; OVCAR-5; HT-29.
Holding throughout (assay): NCI anticancer screen, dose series, 48 h

The structures appear in SMILES notation.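 Results reflect a 48-hour exposure of cells in 96-well plates to compound at five concentrations. GI50: concentration for 50% inhibition of growth.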 Calls of active or inactive are those of the source. Rule as the data show it: active = GI50 up to about 1.1 µM and inactive = higher.

In the case of `C=CC1(NS(=O)(=O)c2ccc(C)cc2)CCC(C(C)(C)C)CC1` (configuration not stated), the GI50 in the assay with MOLT-4 was > 100 µM (inactive); with SNB-19 it was 36.6 µM (inactive); in the assay with SR it was 56 µM (inactive); with HCT-15 it was > 100 µM; in the assay with U-251, 35.6 µM (inactive); with A549 it was 80.9 µM (inactive). Also, the GI50 was 32.7 µM (inactive) in the assay on NCI-H522; > 100 µM (inactive) with K562; > 100 µM (inactive) with CAKI-1; 27 µM (inactive) with DMS-114; > 100 µM (inactive) in the assay with UACC-257; 88.5 µM (inactive) with TK-10. The GI50 in the assay on OVCAR-4 was 91.6 µM (inactive).

`CN(CCCCN)c1ccc2c(=O)[nH][nH]c(=O)c2c1`: the GI50 was > 100 µM (inactive) with MOLT-4; > 10 µM (inactive) with SNB-19; > 100 µM (inactive) in the assay with EKVX; > 100 µM in the assay on HCT-15; > 100 µM (inactive) in the assay on LOX IMVI; > 100 µM (inactive) in the assay with OVCAR-5. The GI50 in the assay on U-251, in the assay on A549, in the assay on NCI-H522, in the assay on K562, in the assay with CAKI-1 and with DMS-114 was > 100 µM (inactive) each time. Further, the GI50 in the assay on UACC-257, with TK-10, in the assay on HT-29 and with OVCAR-4 was > 100 µM (inactive) throughout.

`Cc1nc(N)sc1C(=O)/C=C\c1ccc2c(c1)OCO2`: the GI50 with MOLT-4 is > 100 µM (inactive); in the assay on SNB-19, > 100 µM (inactive); with SR, > 100 µM (inactive); in the assay on EKVX it was > 100 µM (inactive); in the assay with HCT-15, > 100 µM; in the assay on LOX IMVI, > 100 µM (inactive). Further, the GI50 in the assay with OVCAR-5, in the assay on U-251, in the assay on A549, with NCI-H522, in the assay with K562 and in the assay on CAKI-1 was > 100 µM (inactive) each time. In addition, the GI50 in the assay on DMS-114, in the assay on UACC-257, in the assay with TK-10, in the assay on HT-29 and in the assay on OVCAR-4 was > 100 µM (inactive) in each case.

As to `COc1cc([C@@H]2c3cc4c(cc3C(N)C3COC(=O)[C@@H]32)OCO4)cc(OC)c1O` (some centres not stated), the GI50 in the assay on MOLT-4 is 0.266 µM (active); in the assay on SNB-19, 0.17 µM (active); with SR, 0.0857 µM (active); in the assay on HCT-15, 0.324 µM; with LOX IMVI, 0.241 µM (active); with A549 it was 0.337 µM (active). Also, the GI50 with K562 is 0.225 µM (active); in the assay on CAKI-1 it was 0.163 µM (active); in the assay on DMS-114 it was 0.245 µM (active); with UACC-257 it was 0.232 µM (active); in the assay with TK-10, 0.401 µM (active); in the assay on HT-29, 0.232 µM (active). Also, in the assay on OVCAR-4, the GI50 was 0.71 µM (active).

With `COc1cc(C)c(O)c(C(=O)O)c1`, the GI50 in the assay with MOLT-4 was > 100 µM (inactive); in the assay with SNB-19, > 100 µM (inactive); in the assay with SR it was > 100 µM (inactive); in the assay on HCT-15, > 100 µM; in the assay on LOX IMVI it was > 100 µM (inactive); in the assay with OVCAR-5, > 100 µM (inactive). The GI50 with U-251, in the assay on A549, with NCI-H522, with K562, in the assay on CAKI-1 and in the assay on DMS-114 was > 100 µM (inactive) throughout. In addition, the GI50 in the assay with UACC-257, in the assay on TK-10, with HT-29 and in the assay on OVCAR-4 was > 100 µM (inactive) in each case.

On to `C=C[C@@]1(O)CCCC2=C(C(=O)OCC)CC[C@]21C`, for which the GI50 in the assay on MOLT-4 is 26.1 µM (inactive); in the assay with SNB-19 it was 47.5 µM (inactive); in the assay with SR, 54.1 µM (inactive); in the assay with EKVX, > 100 µM (inactive); in the assay on HCT-15 it was > 100 µM; in the assay on OVCAR-5, > 100 µM (inactive). The GI50 in the assay with U-251 is > 100 µM (inactive); with A549, > 100 µM (inactive); with NCI-H522, > 100 µM (inactive); in the assay on K562 it was 30.8 µM (inactive); in the assay with DMS-114, 44 µM (inactive); in the assay with UACC-257 it was > 100 µM (inactive). Besides, the GI50 with TK-10 is > 100 µM (inactive); with HT-29, 64.4 µM (inactive).

As for `C[C@]1(CO)CCC[C@@]2(C)C1CC[C@H]1CC3C[C@]12CC[C@]3(C)O` (some centres not stated), the GI50 in the assay with MOLT-4 is 2.77 µM (inactive); with SNB-19 it was > 100 µM (inactive); in the assay with SR, 83.2 µM (inactive); with HCT-15, > 100 µM; with LOX IMVI it was 90.6 µM (inactive); with OVCAR-5, > 100 µM (inactive). For the same compound, the GI50 in the assay with U-251 is 42.1 µM (inactive); in the assay with A549, 70.5 µM (inactive); in the assay on NCI-H522, 16.3 µM (inactive); in the assay on K562 it was 11.5 µM (inactive); in the assay on CAKI-1, > 100 µM (inactive); in the assay on DMS-114 it was 40.2 µM (inactive). Also, the GI50 is 54.2 µM (inactive) with UACC-257, 37.5 µM (inactive) in the assay with TK-10, > 100 µM (inactive) with HT-29 and 46.1 µM (inactive) in the assay with OVCAR-4.

As to `COc1cc2c(cc1O)[C@@]1(Cc3ccc(OC)c(OC)c3)CCC(=O)N1CC2`, the GI50 with MOLT-4 is 52 µM (inactive); in the assay on SNB-19, > 100 µM (inactive); with SR, 61.8 µM (inactive); in the assay on EKVX, > 100 µM (inactive); in the assay with HCT-15 it was > 100 µM; in the assay with LOX IMVI it was > 100 µM (inactive). Further, the GI50 with OVCAR-5, in the assay on A549, in the assay on K562, in the assay with CAKI-1, with DMS-114 and with UACC-257 was > 100 µM (inactive) throughout. Also, the GI50 in the assay on TK-10, in the assay with HT-29 and with OVCAR-4 was > 100 µM (inactive) in each case.

On to `COC(=O)C(C#N)=C1c2ccccc2Oc2ccccc21`, for which the GI50 in the assay with MOLT-4 is 35.4 µM (inactive); in the assay on SNB-19 it was 41.6 µM (inactive); in the assay on EKVX, > 100 µM (inactive); in the assay with HCT-15, > 100 µM; with LOX IMVI, > 100 µM (inactive); in the assay on OVCAR-5, > 100 µM (inactive). In addition, the GI50 in the assay with A549 is > 100 µM (inactive); in the assay on NCI-H522, 24.9 µM (inactive); in the assay on K562 it was 31.5 µM (inactive); with CAKI-1, > 100 µM (inactive); in the assay on DMS-114 it was 32.7 µM (inactive); in the assay on UACC-257 it was > 100 µM (inactive). Besides, the GI50 with TK-10 was > 100 µM (inactive); with HT-29, 39.3 µM (inactive); in the assay with OVCAR-4, 43.8 µM (inactive).

For `CC1CCN(CCC(=O)CC(c2ccccc2)c2c(O)c3ccccc3oc2=O)CC1` (configuration not stated), the GI50 was > 100 µM (inactive) with MOLT-4; > 100 µM (inactive) with SNB-19; > 100 µM (inactive) in the assay with SR; > 100 µM (inactive) in the assay on EKVX; > 100 µM with HCT-15; > 100 µM (inactive) in the assay with LOX IMVI. For the same compound, the GI50 in the assay on U-251, in the assay with A549, in the assay on NCI-H522, with K562, in the assay on CAKI-1 and with DMS-114 was > 100 µM (inactive) in each case. Further, the GI50 in the assay with UACC-257, with TK-10, in the assay on HT-29 and in the assay with OVCAR-4 was > 100 µM (inactive) throughout.

With `O=C1CCCN(c2ccccc2)N1`, the GI50 with MOLT-4 is > 100 µM (inactive); in the assay on SNB-19, > 100 µM (inactive); in the assay on SR, > 100 µM (inactive); in the assay on EKVX it was > 100 µM (inactive); with HCT-15, > 100 µM; in the assay on LOX IMVI, > 100 µM (inactive). Also, the GI50 in the assay on OVCAR-5, in the assay with U-251, in the assay with A549, in the assay on NCI-H522, with K562 and in the assay with CAKI-1 was > 100 µM (inactive) each time. In addition, the GI50 with DMS-114, with UACC-257, with HT-29 and in the assay with OVCAR-4 was > 100 µM (inactive) throughout.

In the case of `Cc1ccc(/C=C/C(=O)CCN(C)C)cc1`, the GI50 with MOLT-4 is 23.2 µM (inactive); with SNB-19 it was 26.3 µM (inactive); in the assay with SR, 21.4 µM (inactive); with HCT-15, 15.5 µM; in the assay with LOX IMVI it was 16.3 µM (inactive); in the assay on OVCAR-5, 33.8 µM (inactive). The GI50 in the assay on U-251 was 16.3 µM (inactive); in the assay with A549, 20.7 µM (inactive); in the assay with K562, 32 µM (inactive); with CAKI-1 it was 13.9 µM (inactive); in the assay with DMS-114, 18.3 µM (inactive); in the assay with UACC-257 it was 14.7 µM (inactive). Besides, the figures for the GI50 with TK-10, in the assay on HT-29 and in the assay on OVCAR-4 were 16.5 µM (inactive), 18.2 µM (inactive) and 15.2 µM (inactive), respectively.

On to `CCOC(=O)Oc1c(OC)cc(C(=O)NC2CCc3cc(OC)c(OC)c(OC)c3-c3ccc(SC)c(=O)cc32)cc1OC` (configuration not stated), for which the GI50 in the assay with MOLT-4 is 0.157 µM (active); in the assay with SNB-19, 0.324 µM (active); in the assay on SR it was < 0.007 µM (active); with EKVX it was 0.16 µM (active); with HCT-15, 0.445 µM; in the assay with LOX IMVI, 0.0466 µM (active). For the same compound, the GI50 was 0.0346 µM (active) in the assay on U-251; 0.428 µM (active) in the assay with A549; < 0.007 µM (active) with NCI-H522; < 0.007 µM (active) with K562; 0.0261 µM (active) in the assay with DMS-114; 0.0743 µM (active) in the assay on UACC-257. Also, the GI50 is 0.474 µM (active) in the assay with TK-10, 0.0484 µM (active) in the assay on HT-29 and 0.789 µM (active) in the assay on OVCAR-4.
